Laboratory results taken from patent US20150197492A1, “NOVEL INDENO[1,2-c]QUINOLIN-11-ONE DERIVATIVES, PREPARATION METHOD AND APPLICATION THEREOF” (National Defense Medical Center, priority 2014, published 2015).

Tests used:
Assay in all cases: cells
Assay type in all cases: cell-based
[1] = tested on: HL-60 (TB); settings: HL-60 (TB) (Leukemia), 10 μM, 48 hours
[2] = tested on: K-562
[3] = tested on: MOLT-4
[4] = tested on: RPMI-8226
[5] = tested on: SR
[6] = tested on: A549/ATCC
[7] = tested on: NCI-H23
[8] = tested on: NCI-H322M
[9] = tested on: NCI-H460
[10] = tested on: COLO 205
[11] = tested on: HCC-2998
[12] = tested on: HCT-116
[13] = tested on: HT29
[14] = tested on: SW-620
[15] = tested on: SF-268
[16] = tested on: SNB-75
[17] = tested on: U251; settings: CNS Cancer U251
[18] = tested on: LOX IMVI; settings: Melanoma LOX IMV1
[19] = tested on: MDA-MB-435
[20] = tested on: SK-MEL-28
[21] = tested on: UACC-62
[22] = tested on: IGROV1
[23] = tested on: OVCAR-3; settings: OVCAR-3 (Ovarian Cancer), 10 μM, 48 hours
[24] = tested on: OVCAR-4
[25] = tested on: SK-OV-3
[26] = tested on: A498
[27] = tested on: TK-10
[28] = tested on: PC-3
[29] = tested on: MDA-MB-231/ATCC
[30] = tested on: HS 578T
[31] = tested on: BT-549
[32] = tested on: MDA-MB-468
[33] = Homo sapiens, K562, Leukemia K-562
[34] = Homo sapiens, Non-Small Cell Lung Cancer A549/ATCC
[35] = Homo sapiens, Non-Small Cell Lung Cancer NCI-H23
[36] = Homo sapiens, Colon Cancer HCT-116
[37] = Homo sapiens, Colon Cancer SW-620
[38] = Homo sapiens, CNS Cancer SF-268
[39] = Homo sapiens, Breast Cancer MDA-MB-231/ATCC

In the case of `CCN(CC)CCNc1nc2ccccc2c2c1-c1ccc(Cl)cc1C2=O` [SJ-3, 6-(2-(Diethylamino)ethylamino)-9-chloro-11H-indeno[1,2-c]quinolin-11-one], the growth percentage [1] is reported as 94.33%, the GI50 [2, 33] is reported as 8.75 µM and the LC50 (lethal concentration, 50% cell kill) [2, 33] is reported as 7.46 µM. It also gave a growth percentage ([2]; K-562 (Leukemia), 10 μM, 48 hours) of 45.29%, a TGI ([2]; Leukemia K-562) of 3.61 µM and a GI50 ([3]; Homo sapiens, Leukemia MOLT-4) of 6.24 µM. The LC50 (concentration killing 50% of cells) ([3]; Homo sapiens, Leukemia MOLT-4) was 7.91 µM, the TGI ([3]; Leukemia MOLT-4) was 3.43 µM and the growth percentage ([3]; MOLT-4 (Leukemia), 10 μM, 48 hours) was 34.63%. The GI50 ([4]; Homo sapiens, Leukemia RPMI-8226) was 20.2 µM, the CC50 ([4]; Homo sapiens, Leukemia RPMI-8226, read-out: LC50 (the source's name)) was 9.73 µM and the TGI ([4]; Leukemia RPMI-8226) was 4.31 µM. For the same compound, the growth percentage ([4]; RPMI-8226 (Leukemia), 10 μM, 48 hours) was 81.94%, the GI50 ([5]; Homo sapiens, Leukemia SR) was 5.05 µM and the LC50 (50% lethal concentration) ([5]; Homo sapiens, Leukemia SR) was 11.6 µM. For the same compound, the TGI ([5]; Leukemia SR) was 4.06 µM, the growth percentage ([5]; SR (Leukemia), 10 μM, 48 hours) was 46.92% and the growth percentage ([6]; A549/ATCC (Non-Small Cell Lung Cancer), 10 μM, 48 hours) was 51.79%. For the same compound, the GI50 [6, 34] was 15.2 µM, the LC50 (50% lethal concentration) [6, 34] was 6.72 µM and the TGI ([6]; Non-Small Cell Lung Cancer A549/ATCC) was 3.51 µM. The GI50 [7, 35] was 2.63 µM, the LC50 [7, 35] was 8.35 µM and the growth percentage ([7]; NCI-H23 (Non-Small Cell Lung Cancer), 10 μM, 48 hours) was 80.63%. It also gave a TGI ([7]; Non-Small Cell Lung Cancer NCI-H23) of 4.00 µM, a GI50 ([8]; Homo sapiens, Non-Small Cell Lung Cancer NCI-H322M) of 34.5 µM and a CC50 ([8]; Homo sapiens, Non-Small Cell Lung Cancer NCI-H322M, read-out: LC50 (the source's name)) of 36.2 µM. The growth percentage ([8]; NCI-H322M (Non-Small Cell Lung Cancer), 10 μM, 48 hours) was 69.83%, the TGI ([8]; Non-Small Cell Lung Cancer NCI-H322M) was 13.10 µM and the GI50 ([9]; Homo sapiens, Non-Small Cell Lung Cancer NCI-460) was 5.15 µM. The CC50 ([9]; Homo sapiens, Non-Small Cell Lung Cancer NCI-460, read-out: LC50 (the source's name)) was 6.74 µM, the growth percentage ([9]; NCI-H460 (Non-Small Cell Lung Cancer), 10 μM, 48 hours) was 25.15% and the TGI ([9]; Non-Small Cell Lung Cancer NCI-460) was 3.20 µM. It also gave a growth percentage ([10]; COLO 205 (Colon Cancer), 10 μM, 48 hours) of 45.69%, a GI50 ([10]; Homo sapiens, Colon Cancer COLO 205) of 2.41 µM and a TGI ([11]; Colon Cancer HCC-2998) of 4.08 µM. The growth percentage ([11]; HCC-2998 (Colon Cancer), 10 μM, 48 hours) was 88.65%, the GI50 ([11]; Homo sapiens, Colon Cancer HCC-2998) was greater than 100 µM and the CC50 ([11]; Homo sapiens, Colon Cancer HCC-2998, read-out: LC50 (the source's name)) was 7.94 µM. The TGI ([12]; Colon Cancer HCT-116) was 3.19 µM, the growth percentage ([12]; HCT-116 (Colon Cancer), 10 μM, 48 hours) was 36.96% and the GI50 [12, 36] was 6.19 µM. The LC50 (50% lethal concentration) [12, 36] was 6.06 µM, the TGI ([13]; Colon Cancer HT29) was 3.16 µM and the growth percentage ([13]; HT29 (Colon Cancer), 10 μM, 48 hours) was 9.75%. It also gave a GI50 ([13]; Homo sapiens, HT-29, Colon Cancer HT29) of 4.23 µM, a CC50 ([13]; Homo sapiens, HT-29, Colon Cancer HT29, read-out: LC50 (the source's name)) of 6.28 µM and a TGI ([14]; Colon Cancer SW-620) of 3.06 µM. The GI50 [14, 37] was 5.12 µM, the LC50 (concentration killing 50% of cells) [14, 37] was 6.67 µM and the growth percentage ([14]; SW-620 (Colon Cancer), 10 μM, 48 hours) was 43.72%. It also gave a TGI ([15]; CNS Cancer SF-268) of 3.27 µM, a GI50 [15, 38] of 17.7 µM and an LC50 [15, 38] of 6.52 µM. For the same compound, the growth percentage ([15]; SF-268 (CNS Cancer), 10 μM, 48 hours) was 65.88%, the TGI ([16]; CNS Cancer SNB-75) was 2.35 µM and the GI50 ([16]; Homo sapiens, CNS Cancer SNB-75) was 3.25 µM. For the same compound, the CC50 ([16]; Homo sapiens, CNS Cancer SNB-75, read-out: LC50 (the source's name)) was 4.86 µM, the growth percentage ([16]; SNB-75 (CNS Cancer), 10 μM, 48 hours) was 71.52% and the TGI [17] was 3.06 µM. It also gave a GI50 ([17]; Homo sapiens, U-251) of 11.4 µM, an LC50 (concentration killing 50% of cells) ([17]; Homo sapiens, U-251) of 5.88 µM and a GI50 ([18]; Homo sapiens, LOX IMVI) of 6.04 µM. It also gave a CC50 ([18]; Homo sapiens, LOX IMVI, read-out: LC50 (the source's name)) of 6.02 µM, a TGI [18] of 3.04 µM and a GI50 ([19]; Homo sapiens, Melanoma MDA-MB-435) of 20.2 µM. It also gave a CC50 ([19]; Homo sapiens, Melanoma MDA-MB-435, read-out: LC50 (the source's name)) of 7.62 µM, a growth percentage ([19]; MDA-MB-435 (Melanoma), 10 μM, 48 hours) of 92.72% and a TGI ([19]; Melanoma MDA-MB-435) of 3.86 µM. For the same compound, the GI50 ([20]; Homo sapiens, Melanoma SK-MEL-28) was 6 µM, the CC50 ([20]; Homo sapiens, Melanoma SK-MEL-28, read-out: LC50 (the source's name)) was 5.83 µM and the TGI ([20]; Melanoma SK-MEL-28) was 3.21 µM. The growth percentage ([20]; SK-MEL-28 (Melanoma), 10 μM, 48 hours) was 87.40%, the GI50 ([21]; Homo sapiens, Melanoma UACC-62) was 14.8 µM and the CC50 ([21]; Homo sapiens, Melanoma UACC-62, read-out: LC50 (the source's name)) was 6.68 µM. It also gave a TGI ([21]; Melanoma UACC-62) of 3.31 µM, a growth percentage ([21]; UACC-62 (Melanoma), 10 μM, 48 hours) of 99.56% and a GI50 ([22]; Homo sapiens, IGROV-1, Ovarian Cancer IGROV1) of 11.2 µM. For the same compound, the CC50 ([22]; Homo sapiens, IGROV-1, Ovarian Cancer IGROV1, read-out: LC50 (the source's name)) was 7.82 µM, the growth percentage ([22]; IGROV1 (Ovarian Cancer), 10 μM, 48 hours) was 43.43% and the TGI ([22]; Ovarian Cancer IGROV1) was 3.62 µM. The growth percentage [23] was 73.13%, the GI50 ([24]; Homo sapiens, Ovarian Cancer OVCAR-4) was 2.99 µM and the CC50 ([24]; Homo sapiens, Ovarian Cancer OVCAR-4, read-out: LC50 (the source's name)) was 5.68 µM. The growth percentage ([24]; OVCAR-4 (Ovarian Cancer), 10 μM, 48 hours) was 52.50%, the TGI ([24]; Ovarian Cancer OVCAR-4) was 2.79 µM and the GI50 ([25]; Homo sapiens, Ovarian Cancer SK-OV-3) was 35.9 µM. The CC50 ([25]; Homo sapiens, Ovarian Cancer SK-OV-3, read-out: LC50 (the source's name)) was 17.2 µM, the TGI ([25]; Ovarian Cancer SK-OV-3) was 5.57 µM and the growth percentage ([25]; SK-OV-3 (Ovarian Cancer), 10 μM, 48 hours) was 84.20%. The growth percentage ([26]; A498 (Renal Cancer), 10 μM, 48 hours) was 88.98%, the GI50 ([26]; Homo sapiens, Renal Cancer A498) was 8.76 µM and the CC50 ([26]; Homo sapiens, Renal Cancer A498, read-out: LC50 (the source's name)) was 50.8 µM. It also gave a TGI ([26]; Renal Cancer A498) of 1.78 µM, a GI50 ([27]; Homo sapiens, Renal Cancer TK-10) of 24.6 µM and a CC50 ([27]; Homo sapiens, Renal Cancer TK-10, read-out: LC50 (the source's name)) of 6.38 µM. The TGI ([27]; Renal Cancer TK-10) was 3.70 µM, the growth percentage ([27]; TK-10 (Renal Cancer), 10 μM, 48 hours) was 95.55% and the GI50 ([28]; Homo sapiens, Prostate Cancer PC-3) was 12.5 µM. The CC50 ([28]; Homo sapiens, Prostate Cancer PC-3, read-out: LC50 (the source's name)) was 8.98 µM, the growth percentage ([28]; PC-3 (Prostate Cancer), 10 μM, 48 hours) was 41.01% and the TGI ([28]; Prostate Cancer PC-3) was 3.82 µM. The TGI ([29]; Breast Cancer MDA-MB-231/ATCC) was 2.71 µM, the GI50 [29, 39] was 2.23 µM and the LC50 (concentration giving 50% net cell kill) [29, 39] was 5.7 µM. The growth percentage ([29]; MDA-MB-231/ATCC (Breast Cancer), 10 μM, 48 hours) was 25.16%, the TGI ([30]; Breast Cancer HS 578T) was 10.00 µM and the growth percentage ([30]; HS 578T (Breast Cancer), 10 μM, 48 hours) was 84.70%. For the same compound, the GI50 ([30]; Homo sapiens, Breast Cancer HS 578T) was 19.3 µM, the CC50 ([30]; Homo sapiens, Breast Cancer HS 578T, read-out: LC50 (the source's name)) was 46.1 µM and the growth percentage ([31]; BT-549 (Breast Cancer), 10 μM, 48 hours) was 87.48%. It also gave a TGI ([31]; Breast Cancer BT-549) of 9.50 µM, a GI50 ([31]; Homo sapiens, Breast Cancer BT-549) of 32.5 µM and a CC50 ([31]; Homo sapiens, Breast Cancer BT-549, read-out: LC50 (the source's name)) of 45.5 µM. It also gave a TGI ([32]; Breast Cancer MDA-MB-468) of 3.07 µM, a GI50 ([32]; Homo sapiens, Breast Cancer MDA-MB-468) of 1.71 µM and a growth percentage ([32]; MDA-MB-468 (Breast Cancer), 10 μM, 48 hours) of 33.81%.
